Assays:
Type in all cases: biochemical
[1] = target: human PI3K isoform beta (p110 beta) (Homo sapiens, UniProt P42338); experiment: p110 isoform selectivity scintillation proximity assay (SPA), beta isoform; conditions: fold potency over beta relative to alpha, calculated from IC50 values (SPA)
Procedure: (§1) Binding of Formula Ia and Ib compounds from Tables 1a and 1b to purified preparations of p110 isoforms alpha, beta, delta, and gamma was measured by a Scintillation Proximity Assay (SPA) to determine binding activity (IC50 μMol) and selectivity of binding of beta, delta, and gamma isoforms relative to alpha (Example 365). These values are expressed in Table 2.
(§2) The ability of Formula Ia and Ib compounds from Tables 1a and 1b to inhibit the lipid kinase activity of purified preparations of human PI3K isoforms alpha, beta, delta, and gamma was determined by a radiometric scintillation proximity assay (SPA, GE Healthcare, Amersham Biosciences). Concentration dependent inhibition at 50% (IC50 μMol) was determined for all four isoforms […] and fold potency over beta, delta, and gamma relative to alpha was calculated for a selection of compounds in Table 2. Each compound has a p110 alpha IC50<1 μMol.

[2] = target: human PI3K isoform delta (p110 delta) (Homo sapiens, UniProt O00329); experiment: p110 isoform selectivity scintillation proximity assay (SPA), delta isoform; conditions: fold potency over delta relative to alpha, calculated from IC50 values (SPA)
Procedure: as §1, §2

[3] = target: human PI3K isoform gamma (p110 gamma) (Homo sapiens, UniProt P48736); experiment: p110 isoform selectivity scintillation proximity assay (SPA), gamma isoform; conditions: fold potency over gamma relative to alpha, calculated from IC50 values (SPA)
Procedure: as §1, §2

Chain of human PI3K isoform beta (p110 beta) (P42338 whole entry, canonical isoform): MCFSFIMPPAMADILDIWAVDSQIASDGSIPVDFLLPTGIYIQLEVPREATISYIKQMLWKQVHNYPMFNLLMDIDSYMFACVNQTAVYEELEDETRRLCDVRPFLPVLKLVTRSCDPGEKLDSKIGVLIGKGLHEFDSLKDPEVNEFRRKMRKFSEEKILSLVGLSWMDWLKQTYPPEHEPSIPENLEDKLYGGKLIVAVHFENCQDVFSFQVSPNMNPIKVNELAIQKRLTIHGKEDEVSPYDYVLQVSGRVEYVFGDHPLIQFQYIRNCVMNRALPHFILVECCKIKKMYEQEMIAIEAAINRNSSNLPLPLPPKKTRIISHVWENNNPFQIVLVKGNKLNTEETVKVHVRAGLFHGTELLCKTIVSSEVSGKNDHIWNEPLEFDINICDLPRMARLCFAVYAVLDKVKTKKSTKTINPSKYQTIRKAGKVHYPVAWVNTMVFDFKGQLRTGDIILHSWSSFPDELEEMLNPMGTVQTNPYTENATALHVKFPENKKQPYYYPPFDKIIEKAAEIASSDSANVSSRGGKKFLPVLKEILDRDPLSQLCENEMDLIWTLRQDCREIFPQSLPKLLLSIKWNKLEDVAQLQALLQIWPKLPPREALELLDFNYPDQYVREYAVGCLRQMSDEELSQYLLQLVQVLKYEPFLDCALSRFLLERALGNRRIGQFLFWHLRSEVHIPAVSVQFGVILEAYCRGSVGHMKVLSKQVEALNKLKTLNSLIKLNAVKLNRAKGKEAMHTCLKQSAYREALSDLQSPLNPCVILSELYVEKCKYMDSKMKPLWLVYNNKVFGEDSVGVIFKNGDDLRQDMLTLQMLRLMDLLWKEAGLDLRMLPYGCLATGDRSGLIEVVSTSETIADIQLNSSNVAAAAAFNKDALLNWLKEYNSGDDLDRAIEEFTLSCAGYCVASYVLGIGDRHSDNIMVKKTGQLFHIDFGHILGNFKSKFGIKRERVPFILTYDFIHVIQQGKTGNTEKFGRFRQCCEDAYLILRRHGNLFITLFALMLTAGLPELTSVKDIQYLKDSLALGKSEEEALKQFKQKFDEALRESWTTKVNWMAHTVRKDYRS
Chain of human PI3K isoform beta (p110 beta) (P27986 whole entry partner, canonical isoform): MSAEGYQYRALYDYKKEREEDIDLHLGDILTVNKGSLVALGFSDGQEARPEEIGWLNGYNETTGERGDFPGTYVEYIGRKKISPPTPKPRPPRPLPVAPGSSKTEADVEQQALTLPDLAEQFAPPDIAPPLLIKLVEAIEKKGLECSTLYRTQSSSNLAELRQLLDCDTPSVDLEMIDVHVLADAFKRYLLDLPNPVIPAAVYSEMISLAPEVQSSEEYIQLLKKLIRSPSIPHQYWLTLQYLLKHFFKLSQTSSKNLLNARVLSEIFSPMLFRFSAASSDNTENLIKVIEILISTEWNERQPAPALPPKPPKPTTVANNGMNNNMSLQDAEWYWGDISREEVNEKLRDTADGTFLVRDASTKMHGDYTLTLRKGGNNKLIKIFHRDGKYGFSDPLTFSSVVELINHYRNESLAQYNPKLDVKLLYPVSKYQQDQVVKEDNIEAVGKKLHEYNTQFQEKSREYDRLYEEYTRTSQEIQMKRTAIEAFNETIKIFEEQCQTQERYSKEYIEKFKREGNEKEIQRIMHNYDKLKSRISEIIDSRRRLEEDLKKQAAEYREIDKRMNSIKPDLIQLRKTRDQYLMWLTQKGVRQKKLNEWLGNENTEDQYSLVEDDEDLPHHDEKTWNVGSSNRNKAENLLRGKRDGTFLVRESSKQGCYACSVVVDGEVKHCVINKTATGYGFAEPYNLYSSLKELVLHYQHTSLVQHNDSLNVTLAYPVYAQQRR
Chain of human PI3K isoform delta (p110 delta) (O00329 whole entry, canonical isoform): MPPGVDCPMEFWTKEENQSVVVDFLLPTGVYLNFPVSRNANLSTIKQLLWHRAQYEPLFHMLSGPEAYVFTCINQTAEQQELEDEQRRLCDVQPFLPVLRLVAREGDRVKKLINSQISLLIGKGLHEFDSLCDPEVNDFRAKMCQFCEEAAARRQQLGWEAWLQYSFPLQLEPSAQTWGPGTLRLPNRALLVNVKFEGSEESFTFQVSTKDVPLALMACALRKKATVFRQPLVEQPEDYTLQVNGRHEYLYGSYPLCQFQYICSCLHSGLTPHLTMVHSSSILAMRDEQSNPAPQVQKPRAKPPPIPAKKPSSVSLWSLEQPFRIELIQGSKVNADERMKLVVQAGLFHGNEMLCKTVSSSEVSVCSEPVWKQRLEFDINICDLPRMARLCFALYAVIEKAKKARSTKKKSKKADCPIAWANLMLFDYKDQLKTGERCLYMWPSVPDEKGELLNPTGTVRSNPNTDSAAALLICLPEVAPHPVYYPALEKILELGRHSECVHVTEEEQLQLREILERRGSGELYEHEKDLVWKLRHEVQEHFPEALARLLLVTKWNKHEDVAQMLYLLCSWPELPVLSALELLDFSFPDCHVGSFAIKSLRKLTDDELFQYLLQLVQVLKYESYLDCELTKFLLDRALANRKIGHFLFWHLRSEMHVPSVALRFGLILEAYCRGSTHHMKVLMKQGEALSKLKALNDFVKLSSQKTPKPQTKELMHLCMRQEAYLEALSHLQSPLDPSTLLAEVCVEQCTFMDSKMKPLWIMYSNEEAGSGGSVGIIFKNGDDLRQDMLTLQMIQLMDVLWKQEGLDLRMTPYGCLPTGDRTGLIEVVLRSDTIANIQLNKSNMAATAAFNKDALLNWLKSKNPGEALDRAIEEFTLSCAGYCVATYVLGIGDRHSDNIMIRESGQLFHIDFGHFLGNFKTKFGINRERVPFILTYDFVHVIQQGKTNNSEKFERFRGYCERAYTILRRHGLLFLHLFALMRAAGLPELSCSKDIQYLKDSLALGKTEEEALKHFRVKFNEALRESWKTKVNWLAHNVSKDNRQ
Chain of human PI3K isoform delta (p110 delta) (P27986 whole entry partner, canonical isoform): as the sequence (P27986 whole entry partner, canonical isoform) above
Chain of human PI3K isoform gamma (p110 gamma) (P48736 whole entry, canonical isoform): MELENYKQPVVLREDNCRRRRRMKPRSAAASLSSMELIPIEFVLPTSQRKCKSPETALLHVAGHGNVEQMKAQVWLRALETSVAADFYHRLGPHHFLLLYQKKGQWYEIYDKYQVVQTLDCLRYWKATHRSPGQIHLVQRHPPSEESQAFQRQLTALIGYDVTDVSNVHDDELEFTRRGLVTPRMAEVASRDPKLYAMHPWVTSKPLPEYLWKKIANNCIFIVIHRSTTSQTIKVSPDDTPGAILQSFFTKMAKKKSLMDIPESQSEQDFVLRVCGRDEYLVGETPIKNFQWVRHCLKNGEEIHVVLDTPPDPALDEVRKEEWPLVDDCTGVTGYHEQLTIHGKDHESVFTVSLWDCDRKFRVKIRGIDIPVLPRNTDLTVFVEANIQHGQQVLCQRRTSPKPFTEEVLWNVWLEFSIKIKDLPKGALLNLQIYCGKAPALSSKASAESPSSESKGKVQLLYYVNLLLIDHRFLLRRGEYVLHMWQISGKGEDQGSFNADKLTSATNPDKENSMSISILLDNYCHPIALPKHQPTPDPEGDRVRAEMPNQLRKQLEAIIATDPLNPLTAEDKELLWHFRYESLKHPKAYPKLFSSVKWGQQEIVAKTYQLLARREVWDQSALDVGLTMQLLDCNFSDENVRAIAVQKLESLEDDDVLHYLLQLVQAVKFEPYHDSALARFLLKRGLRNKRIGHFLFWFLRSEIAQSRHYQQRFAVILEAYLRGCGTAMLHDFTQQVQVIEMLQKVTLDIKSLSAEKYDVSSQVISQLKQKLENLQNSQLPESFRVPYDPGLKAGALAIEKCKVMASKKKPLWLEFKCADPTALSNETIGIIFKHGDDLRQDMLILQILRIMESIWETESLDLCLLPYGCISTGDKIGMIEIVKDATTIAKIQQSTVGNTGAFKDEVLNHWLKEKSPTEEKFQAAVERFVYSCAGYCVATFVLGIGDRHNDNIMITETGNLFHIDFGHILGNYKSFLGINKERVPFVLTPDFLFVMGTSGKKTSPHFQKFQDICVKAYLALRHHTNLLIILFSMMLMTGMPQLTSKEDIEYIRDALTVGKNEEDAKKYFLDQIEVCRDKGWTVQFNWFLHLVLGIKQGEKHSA

Row | SMILES | alpha/beta [1] | alpha/delta [2] | alpha/gamma [3]
1 | CNC(=O)c1cccc(-c2cc3nc(-c4cccc5[nH]ncc45)nc(N4CCOCC4)c3s2)c1 [Compound 101, 3-(2-(1H-indazol-4-yl)-4-morpholinothieno[3,2-d]pyrimidin-6-yl)-N-methylbenzamide] | >10 | <10 | >10
2 | OC1(c2cc3nc(-c4cccc5[nH]ncc45)nc(N4CCOCC4)c3s2)CCC1 [Compound 133, 1-(2-(1H-indazol-4-yl)-4-morpholinothieno[3,2-d]pyrimidin-6-yl)cyclobutanol] | <10 | <10 | >10
3 | NCC(=O)Nc1cccc(-c2cc3nc(-c4cccc5[nH]ncc45)nc(N4CCOCC4)c3s2)c1 [Compound 137, N-(3-(2-(1H-indazol-4-yl)-4-morpholinothieno[3,2-d]pyrimidin-6-yl)phenyl)-2-aminoacetamide] | >10 | <10 | <10
4 | CCNC(=O)c1cc2nc(-c3cccc4[nH]ncc34)nc(N3CCOCC3)c2s1 [Compound 170, N-ethyl-2-(1H-indazol-4-yl)-4-morpholinothieno[3,2-d]pyrimidine-6-carboxamide] | <10 | <10 | <10
5 | O=C(NOCC1CC1)c1cc2nc(-c3cccc4[nH]ncc34)nc(N3CCOCC3)c2s1 [Compound 202, N-(cyclopropylmethoxy)-2-(1H-indazol-4-yl)-4-morpholinothieno[3,2-d]pyrimidine-6-carboxamide] | <10 | <10 | >10
6 | c1cc(-c2nc(N3CCOCC3)c3sc(-c4cn[nH]c4)cc3n2)c2cn[nH]c2c1 [Compound 203, 2-(1H-indazol-4-yl)-4-morpholino-6-(1H-pyrazol-4-yl)thieno[3,2-d]pyrimidine] | <10 | <10 | >10
7 | C[C@H](O)CNCc1cc2nc(-c3cccc4[nH]ncc34)nc(N3CCOCC3)c2s1 [Compound 205, (S)-1-((2-(1H-indazol-4-yl)-4-morpholinothieno[3,2-d]pyrimidin-6-yl)methylamino)propan-2-ol] | <10 | <10 | >10
8 | O=S(=O)(Nc1cccc(O)c1)c1cc2nc(-c3cccc4[nH]ncc34)nc(N3CCOCC3)c2s1 [Compound 208, 6-(3-hydroxyphenylaminosulfonyl)-2-(1H-indazol-4-yl)-4-morpholinothieno[3,2-d]pyrimidine] | >10 | <10 | >10
9 | O=S(=O)(NCCN1CCCCC1)c1cc2nc(-c3cccc4[nH]ncc34)nc(N3CCOCC3)c2s1 [Compound 218, 6-(2-piperidinylethylaminosulfonyl)-2-(1H-indazol-4-yl)-4-morpholinothieno[3,2-d]pyrimidine] | >10 | <10 | >10
10 | OCCNc1cc2nc(-c3cccc4[nH]ncc34)nc(N3CCOCC3)c2s1 [Compound 226, 2-(2-(1H-indazol-4-yl)-4-morpholinothieno[3,2-d]pyrimidin-6-ylamino)ethanol] | <10 | <10 | >10
11 | c1ccc(-c2cc3nc(-c4cccc5[nH]ncc45)nc(N4CCOCC4)c3o2)cc1 [Compound 233, 2-(1H-indazol-4-yl)-4-morpholino-6-phenylfuro[3,2-d]pyrimidine] | >10 | <10 | <10
12 | CC(C)(O)c1cc2nc(-c3cccc4[nH]ncc34)nc(N3CCOCC3)c2s1 [Compound 235, 2-(2-(1H-indazol-4-yl)-4-morpholinothieno[3,2-d]pyrimidin-6-yl)propan-2-ol] | >10 | <10 | >10

— patent publication US8450315B2, “Phosphoinositide 3-kinase inhibitor compounds and methods of use” (Genentech, Inc., priority 2006, dated 2013)
